# Patent publication US20120035203A1, “BUTACLAMOL FOR THE TREATMENT OF AMYOTROPHIC LATERAL SCLEROSIS” (CAMBRIA PHARMACEUTICALS, INC., priority 2009, published 2012)
# Key:
# [1] = test system: PC12 cells that express mutant G93A SOD1 as a YFP fusion protein; assay: high throughput cytotoxicity protection assay
# Method: This idea was tested by examining the sensitivity of PC12 cells to SOD1 aggregates in the presence and absence of proteasome inhibitor MG132. PC12 cells expressing no SOD1, wild type SOD1, G85R SOD1 or G93A SOD1 were grown with or without MG132 (FIG. 1). […] The ability of protein aggregates to induce cell death was examined by treating G93A SOD1-expressing cells with MG132 for 24 h, removing the MG132 by washing and assaying cell viability after another 24 h.
# PC12 cells expressing G93A SOD1 were treated with 100 nM MG132 with or without co-treatment with geldanamycin or radicicol.
# [2] = high doses; cited from earlier work
# [3] = test system: rats with unilateral lesions in the substantia nigra; conditions: at 100 to 500 times larger doses than the (+) enantiomer; cited from earlier work
substance,measurement,setting,value
(−) butaclamol,activity in the protection assay,[1],only the eutomer (+butaclamol) showed activity
same,effect on epinephrine-induced mortality,[2],devoid of any such activity
same,behavioral activity,[3],devoid of behavioral activity
